Here are results for one compound from patent US7410975B2, “Small molecule toll-like receptor (TLR) antagonists” (Coley Pharmaceutical Group, Inc., priority 2003, dated 2008).

What all share (parameters): species or system BALB/c mice
Data set [1] is described as follows: In vivo toxicity in mice: body weight, mortality, white blood cell differential (Example 9). An excerpt:
FIG. 2 is a pair of graphs depicting results of an in vivo toxicity assay in mice for specific quinoline and quinazoline compounds. […] N=3 for each treatment group.
FIG. 3 is a bar graph depicting total and differential white blood cell counts in mice measured five days after administration of a single intraperitoneal dose of specific quinoline and quinazoline compounds. N=3 for each treatment group.
Female BALB/c mice (n=3 per group) were given a single intraperitoneal bolus injection of CMZ 203-43 (1.0 or 4.0 mg), CMZ 203-34 (1.0 or 4.0 mg) or CMZ 203-49 (1.0 or 4.0 mg) in a volume of 0.2 ml. Compound CMZ 203-43 has the structural formula
Other mice received 10% dimethyl sulfoxide (DMSO) in an identical manner. Animals were weighed immediately prior to injection (day 1) and then daily until day 5. On day 5, blood was collected by cardiac puncture and analyzed for hematological and biochemical parameters. Animals were monitored daily for morbidity and mortality.
All of the mice receiving 4.0 mg CMZ 203-43 group were dead on day 4.
Data for mice treated with 4.0 mg CMZ 203-43 was not available because all these mice were dead before day 5.

The test system of data set [2] is IP-10 induction by CpG ODN 2006. The experiment in a line: In vivo inhibition of IP-10 induction by CpG ODN 2006 (Example 10). The following applies: 40 μg intraperitoneal 1 h before 100 μg CpG ODN 2006 s.c.; bled at 3 hr. The procedure: FIG. 4 is a bar graph depicting in vivo inhibition of IP-10 induction (pg/ml) by CpG ODN 2006 following pretreatment with PBS control or a quinoline compound (203-43) or various indicated quinazoline compounds (203-34, 203-49, or 203-51). N=5 for each group.
(§1) BALB/c mice (n=5) were pretreated with intraperitoneal injection of 40 μg quinoline 203-43, quinazoline 203-34, 203-49, or 203-51, or with 100 μl of sterile phosphate buffered saline (PBS) control. One hour after the injection, mice were injected subcutaneously with 100 μg CpG ODN 2006. Animals were bled at 3 hr post injection with CpG ODN 2006 and IP-10 levels in plasma measured by IP-10-specific enzyme-linked immunosorbent assay (ELISA).

Data set [3] has as its system TNF-α induction by CpG ODN 2006. Put plainly: In vivo inhibition of TNF-α induction by CpG ODN 2006 (Example 11). Conditions: 40 μg intraperitoneal 1 h before 100 μg CpG ODN 2006 s.c.; bled at 1 hr. As for the experimental part: FIG. 5 is a bar graph depicting in vivo inhibition of TNF-α induction (pg/ml) by CpG ODN 2006 following pretreatment with PBS control or a quinoline compound (203-43) or various indicated quinazoline compounds (203-34, 203-49, or 203-51). N=5 for each group.
as §1
Groups of BALB/c mice treated as in Example 10 were also analyzed for TNF-α. Animals were bled at 1 hr post injection with CpG ODN 2006 and TNF-α levels in plasma measured by TNF-α-specific ELISA.

Setting [4] is: 4.0 mg single intraperitoneal injection.

“Also recorded” adds a separate entry of the source.

Consider `CN(C)CCNc1cc(-c2ccc(N3CCN(C)CC3)cc2)nc2ccccc12` [CMZ 203-43], for which the body weight change entry in data set [1] (1.0 mg single intraperitoneal injection, 5 days) is “significant weight loss”. For the same compound, in data set [1] (1.0 mg single intraperitoneal injection, day 5), the “white blood cell differential” value is “significant neutrophilia”. In addition, in data set [1] (setting [4]), the morbidity and mortality result is “sick and had to be sacrificed on day 3; also recorded: dead on day 4”; the necropsy finding result is recorded as “bowel obstruction”. For the same compound, in data set [2], the “serum IP-10 concentration versus PBS control” value is given as “significantly reduced”. Besides, the “serum TNF-α concentration versus PBS control” value in data set [3] is “significantly reduced”.
